Results from patent publication US20030134859A1 (SANKYO COMPANY, LIMITED, priority 2000, published 2003).
Structures can show the parent of a compound that is named as a salt.

How the values were obtained:
Rat white adipocytes = test: Inhibition of the differentiation of adipocytes (Oil Red O); type: cell-based; conditions: 100 nM test compound, 5 days, Oil Red O ABS550, control = 100%, blank = 0%, Table 3; for activity at 0.1 µM: Rattus norvegicus, Adipocyte, 120 h, read-out: Rate of Differentiation (%)
In short: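 Rat white preadipocytes, 5,000 cells/well, given differentiation medium with compound at 100 nM final (0.1% DMSO) for 5 days at 37 °C. Lipid stained with Oil Red O, eluted in DMSO, read at 550 nm; differentiation % relative to DMSO control (100%) and blank (0%).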

leptin production = test: Enhancing activity for leptin production in adipocytes (ELISA); type: cell-based, rat; conditions: leptin concentration as % of control group; for activity at 1 µM / activity at 0.1 µM / activity at 0.001 µM / activity at 0.01 µM: Rattus norvegicus, Adipocyte, 24 h, read-out: Facilitating activity to produce leptin; for activity at 0.001 µM: 1 nm; for Facilitating activity to produce leptin: 24 hr
In short: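 Leptin release, quantified by rat leptin ELISA, expressed as percent of 0.1% DMSO control after 24 h at 37 °C. Cells were floating adipocytes isolated by collagenase digestion of epididymal fat from male 6-week Wistar Imamichi rats; compound tested at 1 nM–1 µM final.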

Row | SMILES | Rate of Differentiation (%) (Rat white adipocytes; mono-hydrochloride) | activity at 1 µM (leptin production; 1 μM) [%] | activity at 0.1 µM (leptin production; 100 nm) [%] | activity at 0.1 µM (Rat white adipocytes) [%] | activity at 0.001 µM (leptin production) [%] | activity at 0.01 µM (leptin production; 10 nm) [%] | Rate of Differentiation (%) (Rat white adipocytes) | Facilitating activity to produce leptin (leptin production; 1 μM) [%] | Facilitating activity to produce leptin (leptin production; 100 nm) [%] | Facilitating activity to produce leptin (leptin production; 10 nm) [%]
1 | Nc1ccc(-c2ccc(NC(=O)c3cc([N+](=O)[O-])ccc3Cl)cc2)cc1 [Example 88, N-[4-(4-Aminophenyl)phenyl]-(2-chloro-5-nitrophenyl)carboxamide mono-hydrochloride] | 63.3 | 115 | 119 |  |  |  |  |  |  | 
2 | CS(=O)(=O)Nc1ccc(-c2ccc(NC(=O)c3cc([N+](=O)[O-])ccc3Cl)cc2)cc1 [Example 93, N-[4-[4-(Methanesulfonylamino)phenyl]phenyl]-(2-chloro-5-nitrophenyl)carboxamide] |  | 114 |  | 62.9 |  |  |  |  |  | 
3 | Cc1ccc(S(=O)(=O)Nc2ccc(-c3ccc(NC(=O)c4cc([N+](=O)[O-])ccc4Cl)cc3)cc2)cc1 [Example 94, N-[4-[4-(4-Toluenesulfonylamino)phenyl]phenyl]-(2-chloro-5-nitrophenyl)carboxamide] |  | 116 | 110 | 68.8 |  |  |  |  |  | 
4 | CC(=O)Nc1ccc(-c2ccc(NC(=O)c3cc([N+](=O)[O-])ccc3Cl)cc2)cc1 [Example 118, N-[4-(4-Acetylaminophenyl)phenyl]-(2-chloro-5-nitrophenyl)carboxamide] |  | 134 | 127 | 53.6 | 114 | 115 |  |  |  | 
5 | O=C(Nc1ccc(-c2ccc(NC(=O)c3cc([N+](=O)[O-])ccc3Cl)cc2)cc1)c1ccccc1 [Example 120, N-[4-(4-Benzoylaminophenyl)phenyl]-(2-chloro-5-nitrophenyl)carboxamide] |  | 121 | 119 | 79.8 | 108 | 110 |  |  |  | 
6 | O=C(Nc1ccc(-c2ccc(NC(=O)c3cc([N+](=O)[O-])ccc3Cl)cc2)cc1)c1cccnc1 [Example 124, N-[4-[4-(Pyridin-3-ylcarbonylamino)phenyl]phenyl]-(2-chloro-5-nitrophenyl)carboxamide] |  | 124 | 146 | 84.2 | 113 | 113 |  |  |  | 
7 | O=C(Nc1ccc(-c2ccc(NC(=O)c3cc([N+](=O)[O-])ccc3Cl)cc2)cc1)c1ccncc1 [Example 126, N-[4-[4-(Pyridin-4-ylcarbonylamino)phenyl]phenyl]-(2-chloro-5-nitrophenyl)carboxamide] |  | 142 | 121 | 75.2 |  | 109 |  |  |  | 
8 | CCS(=O)(=O)Nc1ccc(-c2ccc(NC(=O)c3cc([N+](=O)[O-])ccc3Cl)cc2)cc1 [Example 130, N-[4-(4-Ethanesulfonylaminophenyl)phenyl]-(2-chloro-5-nitrophenyl)carboxamide] |  | 116 | 123 | 64 |  |  |  |  |  | 
9 | Cl.O=C(Nc1ccncc1)c1cc([N+](=O)[O-])ccc1Cl [Example 146, N-(Pyridin-4-yl)-(2-chloro-5-nitrophenyl)carboxamide Hydrochloride] |  | 126 | 138 |  |  | 112 | 78.2 |  |  | 
10 | Cc1ccc(C(=O)Nc2nc3ccc(NC(=O)c4cc([N+](=O)[O-])ccc4Cl)cc3s2)cc1 [Example 149, N-[2-(4-Methylbenzoylamino)benzothiazol-6-yl]-(2-chloro-5-nitrophenyl)carboxamide] |  | 117 | 111 | 80.3 |  |  |  |  |  | 
11 | CC(=O)c1ccc(NC(=O)c2cc([N+](=O)[O-])ccc2Cl)cc1 [Example 155, N-(4-Acetylphenyl)-(2-chloro-5-nitrophenyl)carboxamide] |  | 114 | 130 | 82.7 |  |  |  |  |  | 
12 | O=C(Nc1ccc(-n2ccnc2)cc1)c1cc([N+](=O)[O-])ccc1Cl [Example 174, N-[4-(Imidazol-1-yl)phenyl]-(2-chloro-5-nitrophenyl)carboxamide] |  |  | 127 | 68.8 | 118 | 123 |  |  |  | 
13 | O=C(Nc1ccc(-c2ccc(N3CCCCC3)cc2)cc1)c1cc([N+](=O)[O-])ccc1Cl [Example 177, N-[4-[4-(Piperidin-1-yl)phenyl]phenyl]-(2-chloro-5-nitrophenyl)carboxamide] |  | 145 | 134 | 14 |  | 121 |  |  |  | 
14 | O=C(Nc1ccc(N2CCN(C(=O)c3ccccc3)CC2)cc1)c1cc([N+](=O)[O-])ccc1Cl [Example 184, N-[4-(4-Benzoylpiperazin-1-yl)phenyl]-(2-chloro-5-nitrophenyl)carboxamide] |  |  | 123 | 46.6 |  | 122 |  |  |  | 
15 | Nc1ccc(-c2ccc(NC(=O)c3cc([N+](=O)[O-])ccc3Cl)cc2)cc1 [Example 192, N-[4-(4-Aminophenyl)phenyl]-(2-chloro-5-nitrophenyl)carboxamide] |  |  |  |  |  | 122 | 17.6 | 112.1 | 121.7 | 
16 | CCCCNc1ccc(-c2ccc(NC(=O)c3cc([N+](=O)[O-])ccc3Cl)cc2)cc1 [Example 203, N-[4-[4-(N-Butylamiino)phenyl]phenyl]-(2-chloro-5-nitrophenyl)carboxamide] |  |  |  |  |  |  | 32.6 | 133.9 | 124.8 | 134.6
17 | CCCNc1ccc(-c2ccc(NC(=O)c3cc([N+](=O)[O-])ccc3Cl)cc2)cc1 [Example 204, N-[4-[4-(N-Propylamino)phenyl]phenyl]-(2-chloro-5-nitrophenyl)carboxamide] |  | 133 | 143 | 38.3 |  | 129 |  |  |  | 
18 | CCNc1ccc(-c2ccc(NC(=O)c3cc([N+](=O)[O-])ccc3Cl)cc2)cc1 [Example 205, N-[4-[4-(N-Ethylamino)phenyl]phenyl]-(2-chloro-5-nitrophenyl)carboxamide] |  | 120 | 123 | 39.8 |  | 123 |  |  |  | 
19 | CCCCCN(CCCC)c1ccc(-c2ccc(NC(=O)c3cc([N+](=O)[O-])ccc3Cl)cc2)cc1 [Example 206, N-[4-[4-(N-Butyl-N-pentylamino)phenyl]phenyl]-(2-chloro-5-nitrophenyl)carboxamide] |  | 119 | 112 | 30.6 |  |  |  |  |  | 
20 | CCCCN(CCCC)c1ccc(-c2ccc(NC(=O)c3cc([N+](=O)[O-])ccc3Cl)cc2)cc1 [Example 207, N-[4-[4-(N,N-Dibutylamino)phenyl]phenyl]-(2-chloro-5-nitrophenyl)carboxamide] |  | 116 | 110 | 32.7 |  | 107 |  |  |  | 
21 | CCCCN(CCC)c1ccc(-c2ccc(NC(=O)c3cc([N+](=O)[O-])ccc3Cl)cc2)cc1 [Example 208, N-[4-[4-(N-Butyl-N-propylamino)phenyl]phenyl]-(2-chloro-5-nitrophenyl)carboxamide] |  |  | 111 | 35.1 |  |  |  |  |  | 
22 | CCCCN(CC)c1ccc(-c2ccc(NC(=O)c3cc([N+](=O)[O-])ccc3Cl)cc2)cc1 [Example 209, N-[4-[4-(N-Butyl-N-ethylamino)phenyl]phenyl]-(2-chloro-5-nitrophenyl)carboxamide] |  | 117 | 111 | 40.1 |  |  |  |  |  | 
23 | CCCN(CC)c1ccc(-c2ccc(NC(=O)c3cc([N+](=O)[O-])ccc3Cl)cc2)cc1 [Example 212, N-[4-[4-(N-Ethyl-N-propylamino)phenyl]phenyl]-(2-chloro-5-nitrophenyl)carboxamide] |  | 112 |  | 44 |  |  |  |  |  | 
24 | CCCCCN(CCCCC)c1ccc(-c2ccc(NC(=O)c3cc([N+](=O)[O-])ccc3Cl)cc2)cc1 [Example 214, N-[4-[4-(N,N-Dipentylamino)phenyl]phenyl]-(2-chloro-5-nitrophenyl)carboxamide] |  | 125 | 125 | 31.7 |  | 112 |  |  |  | 
25 | CCCCCN(CC)c1ccc(-c2ccc(NC(=O)c3cc([N+](=O)[O-])ccc3Cl)cc2)cc1 [Example 216, N-[4-[4-(N-Ethyl-N-pentylamino)phenyl]phenyl]-(2-chloro-5-nitrophenyl)carboxamide] |  | 117 | 112 | 32.1 |  | 113 |  |  |  | 
26 | CCN(CC)c1ccc(-c2ccc(NC(=O)c3cc([N+](=O)[O-])ccc3Cl)cc2)cc1 [Example 217, N-[4-[4-(N,N-Diethylamino)phenyl]phenyl]-(2-chloro-5-nitrophenyl)carboxamide] |  | 121 | 117 | 21 |  | 116 |  |  |  | 
